# Measurements taken from patent US20210038607A1, “OXADIAZOLYLTHIOPHENE DERIVATIVES USEFUL AS HISTONE DEACETYLASE INHIBITORS” (Karus Therapeutics Limited, priority 2018, published 2021).
# Experiments:
# Human HDAC4 = target: T1, Human HDAC4 (Homo sapiens, UniProt P56524); assay: HDAC4 biochemical assay, class IIa-specific substrate; conditions: read-out: HDAC Isoform IC50 (nM) 4
# T1 construct: amino acids 627-1085 with N-terminal GST tag; GST (N); host or cells: baculovirus expression system
# How it was run: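 Two-step fluorogenic read-out: deacetylated BOC-Lys(trifluoroacetyl)-AMC (50 μM) was digested by developer and measured at Ex/Em 360/460. Deacetylation by 0.004 ng/ul HDAC4 (aa 627-1085, N-terminal GST) ran 30 min at room temperature, pH 8.0 Tris buffer, 1 mg/mL BSA, 1% DMSO.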
# Human HDAC9 = target: T2, Human HDAC9 (Homo sapiens, UniProt Q9UKV0); assay: HDAC9 biochemical assay, class IIa-specific substrate; conditions: read-out: HDAC Isoform IC50 (nM) 9
# T2 construct: amino acids 604-1066 with C-terminal His tag; His (C); host or cells: baculovirus expression system
# T2 sequence (Q9UKV0 604-1066 isoform Q9UKV0-5): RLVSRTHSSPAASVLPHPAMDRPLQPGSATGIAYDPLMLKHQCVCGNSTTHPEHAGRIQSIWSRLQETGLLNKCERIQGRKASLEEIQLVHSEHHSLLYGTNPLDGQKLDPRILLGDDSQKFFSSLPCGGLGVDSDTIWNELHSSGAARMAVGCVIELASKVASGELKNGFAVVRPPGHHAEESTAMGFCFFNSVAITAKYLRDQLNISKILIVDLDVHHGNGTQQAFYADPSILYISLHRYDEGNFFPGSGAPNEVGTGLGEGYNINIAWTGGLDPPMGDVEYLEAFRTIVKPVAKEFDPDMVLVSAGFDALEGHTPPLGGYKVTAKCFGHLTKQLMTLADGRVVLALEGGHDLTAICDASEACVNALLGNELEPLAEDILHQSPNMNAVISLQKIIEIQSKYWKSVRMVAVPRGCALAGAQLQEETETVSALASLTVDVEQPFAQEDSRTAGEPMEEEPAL
# How it was run: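 HDAC9 residues 604-1066 (C-terminal His tag, baculovirus-expressed) at 0.06 ng/ul with 50 μM class IIa substrate Boc-Lys(trifluoroacetyl)-AMC in Tris-HCl pH 8.0 buffer with BSA and 1% DMSO. 30 min at room temperature, then developer added; fluorescence read at 360/460 nm Ex/Em.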
# Recombinant human HDAC6 = target: T3, Recombinant human HDAC6 (Homo sapiens, UniProt Q9UBN7); assay: HDAC6 biochemical assay, AMC-labeled peptide substrate; conditions: HDAC6; read-out: HDAC Isoform IC50 (nM) 6
# T3 construct: full length, MW=159 kDa; GST (N); host or cells: Sf9 insect cells (baculovirus)
# T3 sequence (Q9UBN7 1-1215): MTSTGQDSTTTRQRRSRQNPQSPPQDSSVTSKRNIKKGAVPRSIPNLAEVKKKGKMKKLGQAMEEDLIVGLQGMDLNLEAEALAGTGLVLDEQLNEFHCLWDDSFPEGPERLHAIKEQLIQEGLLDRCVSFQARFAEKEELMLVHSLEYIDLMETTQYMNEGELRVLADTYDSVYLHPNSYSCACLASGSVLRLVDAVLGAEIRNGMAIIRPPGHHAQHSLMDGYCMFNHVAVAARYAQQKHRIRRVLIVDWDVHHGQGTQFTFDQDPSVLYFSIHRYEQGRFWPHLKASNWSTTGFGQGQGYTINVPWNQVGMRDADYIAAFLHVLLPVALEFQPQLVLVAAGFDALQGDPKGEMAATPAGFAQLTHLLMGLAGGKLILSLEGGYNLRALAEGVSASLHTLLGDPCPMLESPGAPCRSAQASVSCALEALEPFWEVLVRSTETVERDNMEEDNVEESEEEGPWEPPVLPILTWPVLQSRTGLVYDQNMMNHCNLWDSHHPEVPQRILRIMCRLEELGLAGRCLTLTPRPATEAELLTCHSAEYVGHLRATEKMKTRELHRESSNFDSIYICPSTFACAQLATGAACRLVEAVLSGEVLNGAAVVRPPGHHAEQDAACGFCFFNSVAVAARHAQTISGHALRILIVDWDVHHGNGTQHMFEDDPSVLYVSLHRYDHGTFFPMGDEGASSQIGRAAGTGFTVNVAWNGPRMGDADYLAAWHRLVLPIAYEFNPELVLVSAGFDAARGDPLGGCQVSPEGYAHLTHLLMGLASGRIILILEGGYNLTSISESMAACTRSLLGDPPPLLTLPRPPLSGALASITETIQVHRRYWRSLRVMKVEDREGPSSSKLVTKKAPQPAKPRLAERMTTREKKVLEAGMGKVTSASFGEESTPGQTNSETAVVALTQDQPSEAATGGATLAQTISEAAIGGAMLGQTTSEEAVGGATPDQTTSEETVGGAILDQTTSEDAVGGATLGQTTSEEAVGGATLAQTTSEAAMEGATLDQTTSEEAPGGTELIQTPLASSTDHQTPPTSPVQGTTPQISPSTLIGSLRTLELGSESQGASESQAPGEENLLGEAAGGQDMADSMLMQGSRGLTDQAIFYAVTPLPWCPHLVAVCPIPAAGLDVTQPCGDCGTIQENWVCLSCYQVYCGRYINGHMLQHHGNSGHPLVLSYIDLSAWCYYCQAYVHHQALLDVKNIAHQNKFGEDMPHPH
# How it was run: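 Two-step fluorogenic read-out: enzyme deacetylates 50 μM RHKK(Ac)AMC for 1 h at 30° C in pH 8.0 Tris buffer with BSA and 1% DMSO, then developer cleavage gives signal at Ex 360/Em 460. Enzyme: 0.3 ng/ul recombinant full-length human HDAC6, GST-tagged, Sf9-expressed.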
# T1 sequence (P56524 627-1084 limits assumed): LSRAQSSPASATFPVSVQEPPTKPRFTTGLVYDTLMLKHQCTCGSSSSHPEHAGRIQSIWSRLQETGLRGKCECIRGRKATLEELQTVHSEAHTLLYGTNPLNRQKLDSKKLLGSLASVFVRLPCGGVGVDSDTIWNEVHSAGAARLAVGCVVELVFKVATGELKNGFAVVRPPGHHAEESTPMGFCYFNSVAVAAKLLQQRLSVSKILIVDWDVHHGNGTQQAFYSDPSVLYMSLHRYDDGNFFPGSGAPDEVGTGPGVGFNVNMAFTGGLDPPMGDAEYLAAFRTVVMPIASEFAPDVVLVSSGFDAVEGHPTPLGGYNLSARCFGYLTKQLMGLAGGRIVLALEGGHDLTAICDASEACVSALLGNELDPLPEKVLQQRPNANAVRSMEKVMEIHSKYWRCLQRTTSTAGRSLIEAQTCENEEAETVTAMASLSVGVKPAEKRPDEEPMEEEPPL
IC50 (Human HDAC4) [nM],IC50 (Human HDAC9) [nM],IC50 (Recombinant human HDAC6) [nM],Compound
≤ 500,≤ 1000,≤ 500,"O=C(c1ccc(N(Cc2ccc(-c3noc(C(F)(F)F)n3)s2)c2cnccn2)nn1)N1CCOCC1 [Example DS, 6-(Morpholine-4-carbonyl)-N-(pyrazin-2-yl)-N-({5-[5-(trifluoromethyl)-1,2,4-oxadiazol-3-yl]thiophen-2-yl}methyl)pyridazin-3-amine]"
≤ 10000,> 10000,≤ 500,"O=C(O)c1cnnc(N(Cc2ccc(-c3noc(C(F)(F)F)n3)s2)c2cc(C(F)(F)F)cnn2)c1 [Example ES, 6-[({5-[5-(Trifluoromethyl)-1,2,4-oxadiazol-3-yl]thiophen-2-yl}methyl)[5-(trifluoromethyl)pyridazin-3-yl]amino]pyridazine-4-carboxylicacid]"
≤ 1000,≤ 10000,≤ 500,"CC(C)OC1CN(C(=O)c2cnnc(N(Cc3ccc(-c4noc(C(F)(F)F)n4)s3)c3cnccn3)c2)C1 [Example GC, 5-[3-(Propan-2-yloxy)azetidine-1-carbonyl]-N-(pyrazin-2-yl)-N-({5-[5-(trifluoromethyl)-1,2,4-oxadiazol-3-yl]thiophen-2-yl}methyl)pyridazin-3-amine]"
≤ 10000,≤ 10000,≤ 500,"FC(F)(F)c1cnnc(N(Cc2ccc(-c3noc(C(F)(F)F)n3)s2)c2cccnn2)c1 [Example ER, N-(Pyridazin-3-yl)-5-(trifluoromethyl)-N-({5-[5-(trifluoromethyl)-1,2,4-oxadiazol-3-yl]thiophen-2-yl}methyl)pyridazin-3-amine]"
≤ 1000,≤ 10000,≤ 500,"Cc1cnnc(N(Cc2ccc(-c3noc(C(F)(F)F)n3)s2)c2cnccn2)c1 [Example GN, 5-Methyl-N-(pyrazin-2-yl)-N-({5-[5-(trifluoromethyl)-1,2,4-oxadiazol-3-yl]thiophen-2-yl}methyl)pyridazin-3-amine]"
≤ 1000,≤ 10000,≤ 500,"O=C(c1cnnc(N(Cc2ccc(-c3noc(C(F)(F)F)n3)s2)c2cnccn2)c1)N1CC(C(F)F)C1 [Example GK, 5-[3-(Difluoromethyl)azetidine-1-carbonyl]-N-(pyrazin-2-yl)-N-({5-[5-(trifluoromethyl)-1,2,4-oxadiazol-3-yl]thiophen-2-yl}methyl)pyridazin-3-amine]"
≤ 1000,≤ 10000,≤ 500,"CNC(=O)c1ccc(N(Cc2ccc(-c3noc(C(F)(F)F)n3)s2)c2cnccn2)nn1 [Example FC, N-Methyl-6-[(pyrazin-2-yl)({5-[5-(trifluoromethyl)-1,2,4-oxadiazol-3-yl]thiophen-2-yl}methyl)amino]pyridazine-3-carboxamide]"
≤ 10000,≤ 10000,≤ 500,"CN(C(=O)c1cnnc(N(Cc2ccc(-c3noc(C(F)(F)F)n3)s2)c2cnccn2)c1)S(C)(=O)=O [Example GE, N-Methanesulfonyl-N-methyl-6-[(pyrazin-2-yl)({5-[5-(trifluoromethyl)-1,2,4-oxadiazol-3-yl]thiophen-2-yl}methyl)amino]pyridazine-4-carboxamide]"
≤ 1000,≤ 10000,≤ 10000,"FC(F)(F)c1nc(-c2ccc(CN(c3cnccn3)c3cnc(N4CCOCC4)cn3)s2)no1 [Example BM, 5-(Morpholin-4-yl)-N-(pyrazin-2-yl)-N-({5-[5-(trifluoromethyl)-1,2,4-oxadiazol-3-yl]thiophen-2-yl}methyl)pyrazin-2-amine]"
≤ 10000,≤ 10000,≤ 500,"CN(C)C1CN(C(=O)c2cnnc(N(Cc3ccc(-c4noc(C(F)(F)F)n4)s3)c3cnccn3)c2)C1 [Example FX, 5-[3-(Dimethylamino)azetidine-1-carbonyl]-N-(pyrazin-2-yl)-N-({5-[5-(trifluoromethyl)-1,2,4-oxadiazol-3-yl]thiophen-2-yl}methyl)pyridazin-3-amine]"
